Experimental data published in PubChem BioAssay (NCI).
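A five-concentration, 48-hour dose response in 96-well plates underlies each endpoint, interpolated linearly between surrounding concentrations. TGI is the concentration that stops growth completely.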

Columns and labels:
Test in all cases: NCI tumour cell line growth inhibition, 48 h
A498 renal = test system: A498 renal
HCC-2998 colon = test system: HCC-2998 colon
HCT-15 colon = test system: HCT-15 colon
HOP-62 NSCLC = test system: HOP-62 NSCLC
HT29 colon = test system: HT29 colon
IGROV1 ovarian = test system: IGROV1 ovarian
M14 melanoma = test system: M14 melanoma
MALME-3M melanoma = test system: MALME-3M melanoma
MCF7 breast = test system: MCF7 breast
MDA-MB-231 breast = test system: MDA-MB-231 breast
NCI-H522 lung = test system: NCI-H522 lung
OVCAR-5 ovarian = test system: OVCAR-5 ovarian
OVCAR-8 ovarian = test system: OVCAR-8 ovarian
SF-268 CNS = test system: SF-268 CNS
SR leukemia = test system: SR leukemia
U251 CNS = test system: U251 CNS
UACC-257 melanoma = test system: UACC-257 melanoma
UACC-62 melanoma = test system: UACC-62 melanoma
UO-31 renal = test system: UO-31 renal

SMILES | TGI (A498 renal) | TGI (HCC-2998 colon) | TGI (HCT-15 colon) | TGI (HOP-62 NSCLC) | TGI (HT29 colon) | TGI (IGROV1 ovarian) | TGI (M14 melanoma) | TGI (MALME-3M melanoma) | TGI (MCF7 breast) | TGI (MDA-MB-231 breast) | TGI (NCI-H522 lung) | TGI (OVCAR-5 ovarian) | TGI (OVCAR-8 ovarian) | TGI (SF-268 CNS) | TGI (SR leukemia) | TGI (U251 CNS) | TGI (UACC-257 melanoma) | TGI (UACC-62 melanoma) | TGI (UO-31 renal)
COC1(OC)C=CC2C1C1C=CC2C1(OC)OC (configuration not stated) | > 100 µM | > 100 µM | > 100 µM | > 100 µM | > 100 µM | > 100 µM | > 100 µM | > 100 µM | > 100 µM | > 100 µM | > 100 µM | > 100 µM | > 100 µM | > 100 µM | > 100 µM | > 100 µM | > 100 µM | > 100 µM | > 100 µM
CCOc1ccccc1-c1nc2c(s1)C(=O)c1ccccc1C2=O | 29.4 µM | 29.5 µM | > 100 µM | 28.7 µM | – | 27.7 µM | 36.7 µM | 19.8 µM | 46.3 µM | 12.7 µM | 97.7 µM | 40.1 µM | – | 29 µM | > 100 µM | 27.7 µM | 27.3 µM | 13.8 µM | 25.4 µM
COc1cccc(Nc2nc(N)nc(N)c2N)c1 | > 100 µM | > 100 µM | > 100 µM | > 100 µM | > 100 µM | > 100 µM | > 100 µM | > 100 µM | 95 µM | 58.5 µM | > 100 µM | > 100 µM | > 100 µM | > 100 µM | 49.6 µM | > 100 µM | > 100 µM | > 100 µM | > 100 µM
CC(=O)c1ccc2c(c1)CC1(C2)Cc2ccc3c(c2C1=O)CCC3 (configuration not stated) | > 100 µM | 37.8 µM | > 100 µM | > 100 µM | 31.6 µM | > 100 µM | 64.8 µM | 57 µM | 72 µM | > 100 µM | 54.6 µM | > 100 µM | – | > 100 µM | > 100 µM | > 100 µM | 38.2 µM | 74.7 µM | > 100 µM
CCS(=O)(=O)CCn1c(=O)c2c(ncn2C)n(C)c1=O | > 100 µM | > 100 µM | > 100 µM | > 100 µM | > 100 µM | > 100 µM | > 100 µM | > 100 µM | > 100 µM | > 100 µM | > 100 µM | > 100 µM | > 100 µM | > 100 µM | > 100 µM | > 100 µM | > 100 µM | > 100 µM | > 100 µM
NC(=O)SCCC(N)C(=O)O (configuration not stated) | > 100 µM | > 100 µM | > 100 µM | > 100 µM | > 100 µM | > 100 µM | > 100 µM | > 100 µM | > 100 µM | > 100 µM | > 100 µM | > 100 µM | > 100 µM | > 100 µM | > 100 µM | > 100 µM | > 100 µM | > 100 µM | > 100 µM
ON[C@H]1C[C@@H](n2cnc3c(NC4CC4)ncnc32)[C@H](O)[C@@H]1O | > 100 µM | > 100 µM | > 100 µM | > 100 µM | > 100 µM | > 100 µM | > 100 µM | > 100 µM | > 100 µM | > 100 µM | > 100 µM | > 100 µM | > 100 µM | > 100 µM | > 100 µM | > 100 µM | > 100 µM | > 100 µM | > 100 µM
O/N=C1/CC2(N3CCOCC3)C3CC/C(=N\O)C2CC1(Cc1ccccc1)C3 (configuration not stated) | > 100 µM | > 100 µM | > 100 µM | > 100 µM | > 100 µM | > 100 µM | > 100 µM | > 100 µM | > 100 µM | > 100 µM | > 100 µM | > 100 µM | > 100 µM | > 100 µM | > 100 µM | > 100 µM | > 100 µM | > 100 µM | > 100 µM
COc1cc(/C=C\c2nnc(/C=C\c3ccc(O)c(OC)c3)s2)ccc1O | 6.4 µM | 12.9 µM | 18.1 µM | 42 µM | 23.4 µM | > 36.6 µM | 9.58 µM | 24 µM | 11.3 µM | > 57.5 µM | 5.57 µM | 48.8 µM | > 42.9 µM | 41.2 µM | 7.37 µM | 17.1 µM | > 30.7 µM | 18.8 µM | 15.3 µM
CN(C)c1ccc(C2CC(c3ccc4ccccc4c3O)=NN2c2ccc([N+](=O)[O-])cc2[N+](=O)[O-])cc1 (configuration not stated) | > 100 µM | > 100 µM | > 100 µM | > 100 µM | > 100 µM | > 100 µM | > 100 µM | > 100 µM | > 100 µM | > 100 µM | > 100 µM | > 100 µM | > 100 µM | > 100 µM | 51.3 µM | > 100 µM | > 100 µM | 37.2 µM | > 100 µM
